Results reported in PubChem BioAssay AID248 (DTP/NCI, 2004).
Several values for one entry are separate records, joined by “and”; a condition that tells them apart may be missing. Equal values may be shown once. Toxic doses and inconclusive results are not listed. No stated cut-off is given here; in the data, active means T/C of 150% or more; inactive means T/C below 125%.

Tested on: L1210 leukemia ip in BDF1 mice, survival T/C
Experiment: NCI In Vivo Anticancer Drug Screen. Data for tumor model L1210 Leukemia (intraperitoneal) in B6D2F1 (BDF1) mice
Settings: endpoint: mean survival time, higher = longer survival
In short: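 Each compound was tested against a transplantable tumor grown in mice. The endpoint was survival, with treated animals benchmarked against vehicle controls as a simple ratio.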

[1] = dose: 100.0 mg/kg/injection, schedule: Q01DX009 (ip), vehicle: saline with Tween-80
[2] = dose: 100.0 mg/kg/injection, schedule: Q04DX003 (ip), vehicle: Klucel (hydroxypropylcellulose) (HPC)
[3] = dose: 200.0 mg/kg/injection, schedule: Q01DX009 (ip), vehicle: saline with Tween-80
[4] = dose: 200.0 mg/kg/injection, schedule: Q04DX003 (ip), vehicle: Klucel (hydroxypropylcellulose) (HPC)
[5] = dose: 400.0 mg/kg/injection, schedule: Q01DX009 (ip), vehicle: saline with Tween-80
[6] = dose: 400.0 mg/kg/injection, schedule: Q04DX003 (ip), vehicle: Klucel (hydroxypropylcellulose) (HPC)
[7] = dose: 100.0 mg/kg/injection, schedule: Q01DX001 (ip), vehicle: saline
[8] = dose: 200.0 mg/kg/injection, schedule: Q01DX001 (ip), vehicle: saline
[9] = dose: 400.0 mg/kg/injection, schedule: Q01DX001 (ip), vehicle: saline
[10] = dose: 100.0 mg/kg/injection, schedule: Q04DX003 (ip), vehicle: saline
[11] = dose: 100.0 mg/kg/injection, schedule: Q04DX003 (ip), vehicle: saline with Tween-80
[12] = dose: 200.0 mg/kg/injection, schedule: Q04DX003 (ip), vehicle: saline with Tween-80
[13] = dose: 400.0 mg/kg/injection, schedule: Q04DX003 (ip), vehicle: saline with Tween-80
[14] = dose: 100.0 mg/kg/injection, schedule: Q01DX009 (ip), vehicle: saline
[15] = dose: 100.0 mg/kg/injection, schedule: Q01DX001 (ip), vehicle: Klucel (hydroxypropylcellulose) (HPC)
[16] = dose: 100.0 mg/kg/injection, schedule: Q01DX009 (ip), vehicle: Klucel (hydroxypropylcellulose) (HPC)
[17] = dose: 200.0 mg/kg/injection, schedule: Q01DX001 (ip), vehicle: Klucel (hydroxypropylcellulose) (HPC)
[18] = dose: 200.0 mg/kg/injection, schedule: Q01DX009 (ip), vehicle: Klucel (hydroxypropylcellulose) (HPC)

Measured: T/C

CCNc1nc(Cl)nc(NCC)n1
inactive: dose: 100.0 mg/kg/injection, schedule: Q01DX009 (ip), vehicle: saline sonified 98 % of control | [1] 95 % of control | [2] 94 % of control and 103 % of control | dose: 200.0 mg/kg/injection, schedule: Q01DX009 (ip), vehicle: saline sonified 98 % of control | [3] 94 % of control | [4] 94 % of control and 103 % of control | dose: 400.0 mg/kg/injection, schedule: Q01DX009 (ip), vehicle: saline sonified 96 % of control | [5] 100 % of control | [6] 102 % of control and 103 % of control

Clc1ccccc1-c1ccc2c(Cl)ccnc2c1
inactive: [7] 95 % of control | [8] 95 % of control | [9] 91 % of control

COc1cc2c(cc1OC)C(C#N)C2 (stereo unspecified)
inactive: dose: 6.0 mg/kg/injection, schedule: Q01DX009 (ip), vehicle: Klucel (hydroxypropylcellulose) (HPC) 104 % of control | dose: 12.0 mg/kg/injection, schedule: Q01DX009 (ip), vehicle: Klucel (hydroxypropylcellulose) (HPC) 92 % of control | dose: 12.0 mg/kg/injection, schedule: Q04DX003 (ip), vehicle: Klucel (hydroxypropylcellulose) (HPC) 100 % of control and 105 % of control | dose: 25.0 mg/kg/injection, schedule: Q01DX009 (ip), vehicle: Klucel (hydroxypropylcellulose) (HPC) 100 % of control | dose: 25.0 mg/kg/injection, schedule: Q04DX003 (ip), vehicle: Klucel (hydroxypropylcellulose) (HPC) 100 % of control | dose: 50.0 mg/kg/injection, schedule: Q04DX003 (ip), vehicle: Klucel (hydroxypropylcellulose) (HPC) 97 % of control and 92 % of control

CC1(C)CCSC(/C=C/c2ccccc2)=N1
inactive: [10] 100 % of control | dose: 200.0 mg/kg/injection, schedule: Q04DX003 (ip), vehicle: saline 102 % of control | dose: 400.0 mg/kg/injection, schedule: Q04DX003 (ip), vehicle: saline 103 % of control

Nc1ccc(-c2ccc(N)cc2Br)c(Br)c1
inactive: [1] 99 % of control | [11] 95 % of control | [3] 105 % of control | [12] 97 % of control | [5] 88 % of control | [13] 92 % of control

Cc1cc2nc(CCl)[nH]c2cc1C
inactive: dose: 50.0 mg/kg/injection, schedule: Q01DX001 (ip), vehicle: saline 106 % of control | [7] 108 % of control | [8] 112 % of control

CC(NC(=O)Oc1ccccc1)Oc1ccccc1 (stereo unspecified)
inactive: [11] 96 % of control | [12] 101 % of control | [13] 96 % of control

O=C(CCC1c2ccccc2C(=O)c2ccccc21)c1ccccc1
inactive: dose: 50.0 mg/kg/injection, schedule: Q01DX009 (ip), vehicle: saline with Tween-80 108 % of control | [1] 97 % of control | [3] 101 % of control

c1ccc2cnccc2c1
inactive: [14] 100 % of control | dose: 200.0 mg/kg/injection, schedule: Q01DX009 (ip), vehicle: saline 110 % of control

O=C(O)/C=C/c1ccc(/C=C/C(=O)O)cc1
inactive: [1] 95 % of control | [11] 98 % of control | [3] 88 % of control | [12] 96 % of control | [5] 103 % of control | [13] 95 % of control

O=C1C=C(N2CCOCC2)c2cccc3cccc1c23
inactive: dose: 50.0 mg/kg/injection, schedule: Q01DX001 (ip), vehicle: Klucel (hydroxypropylcellulose) (HPC) 106 % of control | [15] 104 % of control | [16] 94 % of control | [17] 98 % of control | [18] 96 % of control

CC1(C)N=C(N)N=C(N)N1c1ccc(CC(C(=O)Nc2ccc(S(=O)(=O)F)cc2)c2ccccc2)cc1 (stereo unspecified)
inactive: dose: 75.0 mg/kg/injection, schedule: Q01DX001 (ip), vehicle: Klucel (hydroxypropylcellulose) (HPC) 97 % of control | dose: 150.0 mg/kg/injection, schedule: Q01DX001 (ip), vehicle: Klucel (hydroxypropylcellulose) (HPC) 94 % of control | dose: 300.0 mg/kg/injection, schedule: Q01DX001 (ip), vehicle: Klucel (hydroxypropylcellulose) (HPC) 90 % of control

CCCCCCCCC1SC(=S)NC1CCCCCCCC(=O)OC (stereo unspecified)
inactive: dose: 100.0 mg/kg/injection, schedule: Q04DX002 (ip), vehicle: saline with Tween-80 96 % of control | dose: 200.0 mg/kg/injection, schedule: Q04DX002 (ip), vehicle: saline with Tween-80 100 % of control | dose: 400.0 mg/kg/injection, schedule: Q04DX002 (ip), vehicle: saline with Tween-80 100 % of control

COC(=O)c1cncn1C(C)c1ccccc1 (stereo unspecified)
inactive: dose: 25.0 mg/kg/injection, schedule: Q04DX003 (ip), vehicle: saline 97 % of control | dose: 50.0 mg/kg/injection, schedule: Q01DX009 (ip), vehicle: saline 104 % of control | dose: 50.0 mg/kg/injection, schedule: Q04DX003 (ip), vehicle: saline 95 % of control | [14] 109 % of control | [10] 97 % of control and 101 % of control

COC(=O)C1OC1c1ccc2ccccc2c1 (stereo unspecified)
inactive: [16] 93 % of control | [18] 95 % of control | dose: 400.0 mg/kg/injection, schedule: Q01DX009 (ip), vehicle: Klucel (hydroxypropylcellulose) (HPC) 97 % of control

CC(=O)Nc1c(I)cc(I)c(C(=O)O)c1I
inactive: dose: 100.0 mg/kg/injection, schedule: Q04DX003 (ip), vehicle: saline sonified 98 % of control | dose: 200.0 mg/kg/injection, schedule: Q04DX003 (ip), vehicle: saline sonified 101 % of control | dose: 400.0 mg/kg/injection, schedule: Q04DX003 (ip), vehicle: saline sonified 103 % of control

CC(Cl)(Cl)[N+](=O)[O-]
inactive: [1] 104 % of control | [3] 104 % of control

Cn1nc(C#N)c2c(N)ncnc21
inactive: [7] 104 % of control | [8] 104 % of control | [9] 101 % of control

O=C(NNC1CCN(Cc2ccccc2)CC1)c1ccccc1
inactive: dose: 10.0 mg/kg/injection, schedule: Q01DX009 (ip), vehicle: saline with Tween-80 95 % of control | dose: 10.0 mg/kg/injection, schedule: Q04DX003 (ip), vehicle: saline with Tween-80 100 % of control | dose: 20.0 mg/kg/injection, schedule: Q01DX009 (ip), vehicle: saline with Tween-80 103 % of control | dose: 20.0 mg/kg/injection, schedule: Q04DX003 (ip), vehicle: saline with Tween-80 102 % of control | dose: 40.0 mg/kg/injection, schedule: Q01DX009 (ip), vehicle: saline with Tween-80 93 % of control | dose: 40.0 mg/kg/injection, schedule: Q04DX003 (ip), vehicle: saline with Tween-80 106 % of control

CC1C(c2ccccc2)CC(c2ccccc2)OS1(=O)=O (stereo unspecified)
inactive: [15] 95 % of control | [2] 103 % of control | [17] 97 % of control | [4] 94 % of control | dose: 400.0 mg/kg/injection, schedule: Q01DX001 (ip), vehicle: Klucel (hydroxypropylcellulose) (HPC) 93 % of control | [6] 97 % of control

CCCCCCc1cc(N=Nc2ccc(S(=O)(=O)Nc3nccs3)cc2)c(O)cc1O
inactive: dose: 100.0 mg/kg/injection, schedule: Q01DX001 (ip), vehicle: carboxymethylcellulose (CMC) 95 % of control | dose: 200.0 mg/kg/injection, schedule: Q01DX001 (ip), vehicle: carboxymethylcellulose (CMC) 98 % of control | dose: 400.0 mg/kg/injection, schedule: Q01DX001 (ip), vehicle: carboxymethylcellulose (CMC) 95 % of control
